Measurements published in paper PMC5484149 (Journal of Medicinal Chemistry, 2017).
One block for each molecule: values may come before it.

Experiments:
[1] = rats; cited from earlier work
Rat IV PK = format: in vivo; settings: male, Sprague-Dawley, plasma, 1 mg/kg
Stability in rat plasma = format: in vitro ADME
TA1537 = test: Bacterial reverse mutation assay; format: cell-based, Salmonella typhimurium; settings: with and without S9 metabolic activation; 0.05 to 5.0 mg/plate
WP2 uvrA = test: Bacterial reverse mutation assay; format: cell-based, Escherichia coli; settings: with and without S9 metabolic activation; 0.05 to 5.0 mg/plate
TA135 = test: Bacterial reverse mutation assay; format: cell-based, Salmonella typhimurium; settings: with and without S9 metabolic activation; 0.05 to 5.0 mg/plate
[2] = Stability in human cryopreserved hepatocytes
TA100 = test: Bacterial reverse mutation assay; format: cell-based, Salmonella typhimurium; settings: with and without S9 metabolic activation; 0.05 to 5.0 mg/plate
aldehyde oxidase (AO) = test: Metabolism in hepatic S9 fractions; format: in vitro ADME; settings: rat, cynomolgus monkey and human hepatic S9 fractions
TA98 = test: Bacterial reverse mutation assay; format: cell-based, Salmonella typhimurium; settings: with and without S9 metabolic activation; 0.05 to 5.0 mg/plate
[3] = Cynomolgus monkey oral PK; format: in vivo; settings: male, plasma, 5 mg/kg

Structure (SMILES): Cc1csc(NC(=O)c2cc(F)cc(Oc3cncnc3)c2)n1 [compound 9]
Clp [1]: 43 mL/min/kg

Structure (SMILES): Cc1cccc(NC(=O)c2cc(Oc3cncnc3)cc(C)n2)n1 [compound 21, 6-Methyl-N-(6-methylpyridin-2-yl)-4-(pyrimidin-5-yloxy)picolinamide]
clearance at 24 h (Rat IV PK): 34.2 mL/min/kg

Structure (SMILES): Cc1cccc(NC(=O)c2cc(Oc3cncc(F)c3)cc(C)n2)n1 [compound 22, 4-((5-Fluoropyridin-3-yl)oxy)-6-methyl-N-(6-methylpyridin-2-yl)picolinamide]
clearance at 24 h (Rat IV PK): 32.5 mL/min/kg

Structure (SMILES): CCc1cccc(NC(=O)c2cc(Oc3cncnc3)cc(C)n2)n1 [compound 23, N-(6-Ethylpyridin-2-yl)-6-methyl-4-(pyrimidin-5-yloxy)picolinamide]
clearance at 24 h (Rat IV PK): 43.7 mL/min/kg

Structure (SMILES): Cc1cc(Oc2cncnc2)cc(C(=O)Nc2ccc(F)cn2)n1 [compound 27, N-(5-Fluoropyridin-2-yl)-6-methyl-4-(pyrimidin-5-yloxy)picolinamide]
bacterial reverse mutation assay TA1537 (TA1537): negative
bacterial reverse mutation assay WP2 uvrA (WP2 uvrA): negative
bacterial reverse mutation assay TA135 (TA135): negative
half-life at 5 µM ([2]; both, cryopreserved hepatocytes (pooled, 19 donors)): > 5 h
predicted hepatic clearance (CLHEP) ([2]; predicted from hepatocytes): 3.59 mL/min/kg
bacterial reverse mutation assay TA100 (TA100): negative
contribution of AO to metabolism (aldehyde oxidase (AO)): AO contributed significantly to the metabolism
bacterial reverse mutation assay TA98 (TA98): negative
Tmax [3]: 3 h
clearance at 24 h (Rat IV PK): 19.3 mL/min/kg

The remaining lines, values ahead:

stability in rat plasma (Stability in rat plasma): instability
clearance at 24 h (Rat IV PK): 96 mL/min/kg
Structure (SMILES): Cc1cc(Oc2cncc(F)c2)cc(C(=O)Nc2cccc(F)n2)n1 [compound 26, N-(6-Fluoropyridin-2-yl)-4-((5-fluoropyridin-3-yl)oxy)-6-methylpicolinamide]

Tmax [3]: 2 h
clearance at 24 h (Rat IV PK): 9.2 mL/min/kg
Structure (SMILES): Cc1cc(Oc2cncc(F)c2)cc(C(=O)Nc2ccc(F)cn2)n1 [compound 28, N-(5-Fluoropyridin-2-yl)-4-((5-fluoropyridin-3-yl)oxy)-6-methylpicolinamide]

clearance at 24 h (Rat IV PK): 6.2 mL/min/kg
Structure (SMILES): Cc1cc(Oc2cnc(C)nc2)cc(C(=O)Nc2ccc(F)cn2)n1 [compound 33, N-(5-Fluoropyridin-2-yl)-6-methyl-4-((2-methylpyrimidin-5-yl)oxy)picolinamide]
